# Biological target: T1, FdC (Rhodobacter capsulatus, UniProt D5ARY7)
# T1 construct: gene fdxC; full length, N-terminal Met replaced by Strep-tag (MAWSHPQFEK), tag kept; E. coli BL21-AI; monomer
# Test: X-ray crystallography; UV-Vis; EPR
# Assay type: binding
# Settings: 1.7 Å; anaerobic crystallisation, pH 8.0; ligands C38, C43, C46, C81
# T1 sequence (D5ARY7 2-95): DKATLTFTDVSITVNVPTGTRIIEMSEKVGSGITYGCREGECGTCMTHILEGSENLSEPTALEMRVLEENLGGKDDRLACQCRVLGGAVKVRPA
smiles,measurement,value
[S]1[Fe][S][Fe]1 [[Fe2S2]-cluster],X-ray crystallography; UV-Vis; EPR,The globular and monomeric FdC coordinates a [Fe2S2]‐cluster
